We go through 18 compounds from patent US11446298B2, “Pyrimidine derivatives” (Idorsia Pharmaceuticals Ltd, priority 2017, dated 2022).

pIC50: −log10 of the molar value.

Type in all cases: cell-based
Test [1] has as its target T1, EP2 (Homo sapiens, UniProt P43116).
T1 construct: SF295 glioblastoma cells express high endogenous EP2 and no EP4; host or cells: SF295 glioblastoma cells
The test can be described thus: hEP2 cAMP Assay (SF295 glioblastoma cells, HTRF cAMP, PGE2 75 nM). The settings on record: antagonistic activity, PGE2 75 nM (EC80). The method, then: (§1) The antagonistic activities of the compounds of formula (I) on the EP2 and EP4 receptors are also determined in accordance with the following experimental method.
(§2) Human tumor cell lines expressing endogenously either EP4 or EP2 are used and cAMP accumulation in cells upon PGE2 stimulation is monitored. SF295 glioblastoma cells express high endogenous EP2 and no EP4, whereas BT549 breast cancer cells, express high endogenous EP4 levels and very low EP2 levels.
(§3) As a detection method for cAMP the HTRF (homogeneous time resolved fluorescence) Cisbio kit (HTRF cAMP dynamic 2 kit 20′000 tests Cisbio Cat. #62AM4PEC) was used, which is based on a competitive immunoassay using a Cryptate-labeled anti-cAMP antibody and d2-labeled cAMP. Native cAMP produced by cells or unlabeled cAMP (for the standard curve) compete with exogenously added d2-labeled cAMP (acceptor) for binding to monoclonal anti-cAMP-Eu3+Cryptate (donor). A FRET signal (Fluorescence Resonance Energy Transfer) is obtained only if the labeled anti-cAMP antibody binds the d2 labelled cAMP, thus the specific signal (i.e. energy transfer) is inversely proportional to the concentration of cAMP in the standard or sample.
The SF295 cells (NCI/No. 0503170) are detached from culture dishes with a cell dissociation buffer (Invitrogen, 13151-014), and collected in growing medium (GM: RPM11640 (Invitrogen 21875)/10% FCS, 1% Penicilin/streptomycin). Cells are counted washed and resuspended in assay buffer (AB; HBSS, 20 mM HEPES, 0.2% BSA; 2 mM IBMX). 4′000 cells in 5 μL of AB are seeded per well of a small volume 384 well plate (black with flat bottom, Greiner 784076).
(§4) Stock solutions of test compounds are made at a concentration of 10 mM in DMSO, and serially diluted in DMSO to concentrations required for inhibition dose response curves (tested concentration range 30 μM-0.4 nM; 30 μM-0.015 nM or 1 μM-0.01 nM).
PGE2 (Cayman 14010, stock solution: 75 μM in DMSO) is used as agonist at 75 nM final concentration, corresponding to EC80.
2.5 μL of diluted compounds are transferred into the assay plate. Plate is pre-incubated 45 minutes at room temperature. Subsequently, 2.5 μL of PGE2 (final conc. 75 nM) are transferred into the assay plate. Plate is incubated 30 minutes at room temperature. Five μL of each donor (anti-cAMP cryptate) and acceptor (cAMP-d2) are added and the plate is incubated another hour at room temperature in the dark and then read using a BMG LABTECH PHERAstar reader (Excitation: 337 nm, Emission: 620 and 665 nm).
(§5) The obtained Delta F (fluorescence) values (665 nm/620 nM) are converted into % cAMP values using the measurements of the cAMP calibrator provided in the kit. For each compound concentration the percentage of cAMP compared to DMSO control value as average ±STDEV (each concentration is measured in duplicate) is calculated.
(§6) IC50 values and curves are generated with XLfit software (IDBS) using Dose-Response One Site model 203. When compounds were measured multiple times, mean values are given.
On the technique in general: Time-resolved FRET reads energy transfer from a long-lived donor to a nearby acceptor.

Test [2] has as its target T2, EP4 (Homo sapiens, UniProt P35408).
T2 construct: BT549 breast cancer cells, express high endogenous EP4 levels and very low EP2 levels; host or cells: BT549 breast cancer cells
The test can be described thus: hEP4 cAMP Assay (BT549 breast cancer cells, HTRF cAMP, PGE2 6 nM). The settings on record: antagonistic activity, PGE2 6 nM (EC80). How it is done: as §1, §2, §3
The BT549 cells (NCI/No. 0507282) are detached from culture dishes with a cell dissociation buffer (Invitrogen, 13151-014), and collected in growing medium (GM: RPMI1640 (Invitrogen 21875)/10% FCS, 1% Penicilin/streptomycin). Cells are counted washed and resuspended in assay buffer (AB; HBSS, 20 mM HEPES, 0.2% BSA; 2 mM IBMX). 4′000 cells in 5 μL of AB are seeded per well of a small volume 384 well plate (black with flat bottom, Greiner 784076).
as §4
PGE2 (Cayman 14010, stock solution: 6 uM in DMSO) is used as agonist at 6 nM final concentration, corresponding to EC80.
2.5 μL of diluted compounds are transferred into the assay plate. Plate is pre-incubated 45 minutes at room temperature. Subsequently, 2.5 μL of PGE2 (final conc. 6 nM) are transferred into the assay plate. Plate is incubated 30 minutes at room temperature. 5 μL of each donor (anti-cAMP cryptate) and acceptor (cAMP-d2) are added and the plate is incubated another hour at room temperature in the dark and then read using a BMG LABTECH PHERAstar reader (Excitation: 337 nm, Emission: 620 and 665 nm).
as §5, §6

In test [3] the target is T3, PTGER2 (EP2) (Homo sapiens, UniProt P43116).
T3 construct: host or cells: HEK 293 (PathHunter, stably transfected)
T3 sequence (P43116 whole entry): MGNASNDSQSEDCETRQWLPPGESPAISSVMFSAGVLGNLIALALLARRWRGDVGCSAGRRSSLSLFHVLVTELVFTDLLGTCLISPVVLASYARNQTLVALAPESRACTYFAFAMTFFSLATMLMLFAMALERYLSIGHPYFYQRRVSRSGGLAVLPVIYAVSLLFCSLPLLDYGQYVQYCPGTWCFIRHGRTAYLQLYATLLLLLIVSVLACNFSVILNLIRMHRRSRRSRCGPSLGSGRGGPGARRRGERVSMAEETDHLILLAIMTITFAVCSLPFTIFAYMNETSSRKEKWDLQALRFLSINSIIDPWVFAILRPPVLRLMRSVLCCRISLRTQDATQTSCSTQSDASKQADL
The test can be described thus: hEP2 b-Arrestin Assay (PathHunter HEK 293 PTGER2 b-arrestin cells, PGE2 5 μM). The settings on record: antagonistic activity, beta-arrestin assay, HEK 293 PTGER2 cells, PGE2 5 μM (EC80); read-out: hEP2 b-arr IC50. The method, then:
as §1
The assay is using the PathHunter™ HEK 293 PTGER2 and PTGER4 b-arrestin cell lines from DiscoverX. The system is based on the Enzyme Fragment Complementation Technology. Two complementing fragments of the b-galactosidase enzyme are expressed within stably transfected cells. The larger portion of b-gal, termed EA for Enzyme Acceptor, is fused to the C-terminus of b-arrestin 2. The smaller fragment, termed ProLink™ tag, is fused to PTGER2 (EP2) or PTRGER4 (EP4) at the C-terminus. Upon activation, b-arrestin is recruited which forces the interaction of ProLink and EA, allowing complementation of the two fragments of b-gal and the formation of a functional enzyme which is capable of hydrolysing the substrate and generating a chemiluminescent signal.
The HEK 293 PTGER2 b-arrestin cells (DiscoverX 93-021-4C1) are detached from culture dishes with a cell dissociation buffer (Invitrogen, 13151-014), and collected in growing medium (GM: DMEM+Glutamax-I (Invitrogen 32430)/10% FCS, 1% Penicilin/streptomycin). 5000 cells per well of a 384 well plate (white with white bottom Greiner 781080) are seeded in 20 μl per well of GM. Plate is incubated at 37° C., 5% CO2 for 24 hours.
Stock solutions of test compounds are made at a concentration of 10 mM in DMSO, and serially diluted in DMSO to concentrations required for inhibition dose response curves (tested concentration range 10 μM-2 nM or 1 μM-0.2 nM).
PGE2 (Cayman 14010, stock solution: 10 mM in DMSO) is used as agonist at 5 μM final concentration, corresponding to EC80.
Five microliters of diluted compounds are transferred into the assay plate. Plate is pre-incubated 15 minutes at 37° C. Then five microliters of PGE2 (final conc. 5 μM) are transferred into the assay plate. Plate is incubated 120 minutes at 37° C.
PathHunter Glo Detection Kit components are thawed and mix according to manufacturer's instructions: 1 part Galacton Star Substrate with 5 parts Emerald II™ Solution, and 19 parts of PathHunter Cell Assay Buffer, respectively. Twelve μl of reagent are transferred to the assay plate and incubate for 1 hour at room temperature in the dark. Luminescence counts are read on a BMG Fluostar Optima reader according to manufacturer's instructions.
For each compound concentration calculate of the percentage of activity compared to DMSO control value as average ±STDEV. (each concentration is measured in duplicate)
as §6

T2 sequence (P35408 whole entry): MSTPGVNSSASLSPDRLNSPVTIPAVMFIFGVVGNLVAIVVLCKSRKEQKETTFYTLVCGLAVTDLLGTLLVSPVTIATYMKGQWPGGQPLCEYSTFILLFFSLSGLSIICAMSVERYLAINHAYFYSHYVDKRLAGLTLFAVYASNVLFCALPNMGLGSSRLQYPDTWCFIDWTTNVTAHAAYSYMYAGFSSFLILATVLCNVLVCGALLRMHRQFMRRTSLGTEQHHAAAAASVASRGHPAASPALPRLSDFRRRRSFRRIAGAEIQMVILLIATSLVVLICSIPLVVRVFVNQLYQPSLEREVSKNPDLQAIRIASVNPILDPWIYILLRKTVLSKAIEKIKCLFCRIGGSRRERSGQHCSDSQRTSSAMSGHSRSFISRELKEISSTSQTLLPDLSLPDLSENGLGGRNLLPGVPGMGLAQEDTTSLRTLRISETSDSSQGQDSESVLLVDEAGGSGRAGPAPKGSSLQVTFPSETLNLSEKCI
T1 sequence (P43116 whole entry): as the sequence (P43116 whole entry) above

As usually defined, the pIC50 is the negative decadic logarithm of the IC50, by convention in mol/L. With `CCOc1cc(-c2cc(NCCc3c(OC)ccc4ncccc34)ncn2)ccc1O` [Example 90, 2-Ethoxy-4-{6-[2-(6-methoxy-quinolin-5-yl)-ethylamino]-pyrimidin-4-yl}-phenol], the pIC50 in test [1] is 7.24; in test [2], 6.45; in test [3] it was 7.44.

For the compound `Cc1ccc2c(cnn2C)c1CCNc1cc(-c2ccc(-c3c(O)c(=O)c3=O)cc2)ncn1` [Example 92, 3-(4-{6-[2-(1,5-Dimethyl-1H-indazol-4-yl)-ethylamino]-pyrimidin-4-yl}-phenyl)-4-hydroxy-cyclobut-3-ene-1,2-dione], the figures for the negative-log IC50 (pIC50) in test [1] and in test [2] were 6.54 and 6.26, respectively.

For `CCOc1cc(-c2cc(NCCc3cccc4c3OCO4)ncn2)sc1C(=O)O` [Example 36, 5-[6-(2-Benzo[1,3]dioxol-4-yl-ethylamino)-pyrimidin-4-yl]-3-ethoxy-thiophene-2-carboxylic acid], the pIC50 in test [1] is 6.58; in test [2] it was 6.43.

In the case of `COc1ccc2ccccc2c1CCNc1cc(-c2cc(OCCO)c(C(=O)O)s2)ncn1` [Example 156, 3-(2-Hydroxy-ethoxy)-5-{6-[2-(2-methoxy-naphthalen-1-yl)-ethylamino]-pyrimidin-4-yl}-thiophene-2-carboxylic acid], the negative-log IC50 (pIC50) was 8.15 in test [1] and 7.29 in test [2].

For `CCOc1cc(-c2cc(NCCc3cccc4cc(C)oc34)ncn2)ccc1OCC(=O)O` [Example 75, (2-Ethoxy-4-{6-[2-(2-methyl-benzofuran-7-yl)-ethylamino]-pyrimidin-4-yl}-phenoxy)-acetic acid], the negative-log IC50 (pIC50) is 6.01 in test [1] and 6.05 in test [2].

As to `O=C(O)c1sc(-c2cc(NCCc3cccc4cccnc34)ncn2)cc1C(F)(F)F` [Example 82, 5-[6-(2-Quinolin-8-yl-ethylamino)-pyrimidin-4-yl]-3-trifluoromethyl-thiophene-2-carboxylic acid], the results for the pIC50 in test [1] and in test [2] were 6.01 and 6.02, respectively.

For `CCOc1cc(-c2cc(NCCc3cccc4ccoc34)ncn2)ccc1OCC(=O)O` [Example 51], the figures for the pIC50 in test [1] and in test [2] were 6.33 and 6.07, respectively.

In the case of `CCOc1cc(-c2cc(NCCc3ccc(OC)c4ccccc34)ncn2)ccc1OCC(=O)O` [Example 60, (2-Ethoxy-4-{6-[2-(4-methoxy-naphthalen-1-yl)-ethylamino]-pyrimidin-4-yl}-phenoxy)-acetic acid], the pIC50 in test [1] was 6.07; in test [2], 6.42.

For the compound `CCNC(=O)Nc1ccc(-c2cc(NCCc3c(OC)ccc4ncccc34)ncn2)cc1OC` [Example 98, 1-Ethyl-3-(2-methoxy-4-{6-[2-(6-methoxy-quinolin-5-yl)-ethylamino]-pyrimidin-4-yl}-phenyl)-urea], the pIC50 is 6.45 in test [1] and 6.47 in test [2].

Turning to `CCOc1cc(-c2cc(NCCc3cccc4ccsc34)ncn2)ccc1CC(=O)O` [Example 105, {4-[6-(2-Benzo[b]thiophen-7-yl-ethylamino)-pyrimidin-4-yl]-2-ethoxy-phenyl}-acetic acid], the pIC50 was 6.11 in test [1] and 6.16 in test [2].

Take `CCOc1cc(-c2cc(NCCc3cccc4ccccc34)ncn2)ccc1OCC(=O)O` [Example 77]: the pIC50 in test [1] was 6.38; in test [2] it was 6.39.

`CCCOc1ccc2ccccc2c1CCNc1cc(-c2cc(OCC)c(C(=O)O)s2)ncn1` [Example 38, 3-Ethoxy-5-{6-[2-(2-propoxy-naphthalen-1-yl)-ethylamino]-pyrimidin-4-yl}-thiophene-2-carboxylic acid]: the negative logarithm of the IC50 (pIC50) in test [1] is 7.66; in test [2], 7.32.

For `CCOc1cc(-c2cc(NCCc3c(Br)ccc4ccccc34)ncn2)sc1C(=O)O` [Example 10, 5-{6-[2-(2-Bromo-naphthalen-1-yl)-ethylamino]-pyrimidin-4-yl}-3-ethoxy-thiophene-2-carboxylic acid], the negative logarithm of the IC50 (pIC50) was 8.30 in test [1] and 7.66 in test [2].

As to `CCOc1cc(-c2cc(NCCc3cccc4sccc34)ncn2)ccc1OCC(=O)O` [Example 109], the negative logarithm of the IC50 (pIC50) is 6.14 in test [1] and 6.34 in test [2].

For `CCOc1cc(-c2cc(NCCc3cccc4ccsc34)ncn2)ccc1OCC(=O)O` [Example 104], the pIC50 was 6.47 in test [1] and 6.45 in test [2].

Take `O=C(O)c1ccc(-c2cc(NCCc3cccc4cccnc34)ncn2)cc1OC1CCC1` [Example 22, 2-Cyclobutoxy-4-[6-(2-quinolin-8-yl-ethylamino)-pyrimidin-4-yl]-benzoic acid]: the pIC50 is 6.02 in test [1] and 6.21 in test [2].

As to `CCOc1cc(-c2cc(NCCc3c(C)c(C)cc4ccccc34)ncn2)ccc1C(=O)O` [Example 11, 4-{6-[2-(2,3-Dimethyl-naphthalen-1-yl)-ethylamino]-pyrimidin-4-yl}-2-ethoxy-benzoic acid], the values for the pIC50 in test [1] and in test [2] were 6.58 and 6.05, respectively.

In the case of `COc1ccc(CCNc2cc(-c3ccc(C(=O)O)c(OC4CCC4)c3)ncn2)c2ccccc12` [Example 58, 2-Cyclobutoxy-4-{6-[2-(4-methoxy-naphthalen-1-yl)-ethylamino]-pyrimidin-4-yl}-benzoic acid], the figures for the pIC50 in test [1] and in test [2] were 6.08 and 6.40, respectively.
